One may read the CC50 as the concentration giving 50% cytotoxicity. High values mean better tolerance by the cells, low ones harm at low concentration.

These results are taken from publication PMC6792352, “Limited Chemical Structural Diversity Found to Modulate Thyroid Hormone Receptor in the Tox21 Chemical Library” (Environmental Health Perspectives, 2019).

A short description of this data set: in vitro. Particulars: rat, gh3-tre-luc cells.

Where a name gives a salt, the structure may show the parent alone.

Turning to `CCc1cccc(C)c1N(C(=O)CCl)[C@@H](C)COC` [S-Metolachlor], the 50% cytotoxic concentration (CC50) at 24 h (AC50 (uM) modified / 1000) is more than 90 µM. `NCC[C@H](O)C(=O)N[C@@H]1C[C@H](N)[C@@H](O[C@H]2O[C@H](CN)[C@@H](O)[C@H](O)[C@H]2N)[C@H](O[C@@H]2O[C@H](CO)C(O)[C@H]2O)[C@H]1O` (some centres unmarked) [Butirosin disulfate] came in with a cytotoxic concentration (CC50) at 24 h (AC50 (uM) modified / 1000) of more than 20 µM. In turn, `CC(=O)OC/C=C(\C)CC/C=C(\C)CCC=C(C)C` [trans,trans-Farnesyl acetate] had a CC50 at 24 h (AC50 (uM) modified / 1000) of more than 90 µM. Consider `Nc1ccc(N=Nc2ccccc2)cc1` [4-Aminoazobenzene], for which the CC50 at 24 h (AC50 (uM) modified / 1000) is more than 90 µM. `OCC1CC2CC1C1CCC(CO)C21` (centres unmarked) [Tricyclodecanedimethanol] displayed a CC50 at 24 h (AC50 (uM) modified / 1000) of more than 90 µM. On to `Cc1ccccc1O` [o-Cresol], for which the CC50 at 24 h (AC50 (uM) modified / 1000, Tox21_110001=Tox21_202305, viability, 1 nM T3 present, 24 h) was more than 90 µM. For `NC[C@H]1O[C@H](O[C@H]2[C@H](O[C@@H]3O[C@H](CO)[C@@H](O)[C@H]3O)[C@@H](O)[C@H](N)C[C@@H]2N)[C@H](N)[C@@H](O)[C@@H]1O` [Ribostamycin sulfate], the CC50 at 24 h (AC50 (uM) modified / 1000) was more than 20 µM. As for `CN1CCN(C2=Nc3ccccc3Oc3ccc(Cl)cc32)CC1` [Loxapine succinate], it took 7.25 µM to reach half-maximal cytotoxicity (AC50 (uM) modified / 1000) (CC50 at 24 h). On to `Cc1cccc(C)c1` [m-Xylene], for which, for the setting “AC50 (uM) modified / 1000”, the cytotoxic concentration (CC50) at 24 h was more than 90 µM. As for `CN(C)[C@@H]1C(O)=C(C(=O)NCN2CCCC2)C(=O)[C@@]2(O)C(O)=C3C(=O)c4c(O)cccc4[C@@](C)(O)[C@H]3C[C@@H]12` [Rolitetracycline], the 50% cytotoxic concentration (CC50) at 24 h (AC50 (uM) modified / 1000) was more than 20 µM. As to `Nc1ccc(-c2ccc(N)c(N)c2)cc1N` [3,3',4,4'-Tetraaminobiphenyl tetrahydrochloride], the CC50 at 24 h (AC50 (uM) modified / 1000) was determined as 64.7 µM. In the case of `C=CCON=C(CCC)C1C(=O)CC(C)(C)C(C(=O)OC)C1=O` (centres unmarked) [Alloxydim-sodium], the CC50 at 24 h (AC50 (uM) modified / 1000) is more than 90 µM.

In turn, `CC(=O)OCC=C(C)C` [3,3-Dimethylallyl acetate] had a half-maximal cytotoxic concentration (CC50) at 24 h (AC50 (uM) modified / 1000) of more than 60 µM. Molecule `Cc1nnc(SCC2=C(C(=O)O)N3C(=O)[C@@H](NC(=O)Cn4cnnn4)[C@H]3SC2)s1` [Cefazolin] yielded a 50% cytotoxic concentration (CC50) at 24 h (AC50 (uM) modified / 1000) of more than 50 µM. Same read-out and setting: as for `O=C1c2ccccc2C(=O)N1CCl` [2-(Chloromethyl)-1H-isoindole-1,3(2H)-dione], the figure is more than 90 µM.

In turn, `CCO[Si](CCC#N)(OCC)OCC` [3-(Triethoxysilyl)propionitrile] returned a half-maximal cytotoxic concentration (CC50) at 24 h (AC50 (uM) modified / 1000) of more than 90 µM. The same measure, in the same setting: as for `N#CC1(N)CCCCC1` [1-Aminocyclohexanecarbonitrile], the figure is more than 90 µM; as for `O=C1C(Cl)C(CCl)CN1c1cccc(C(F)(F)F)c1` (centres unmarked) [Flurochloridone], more than 90 µM. `O=C(OCc1ccccc1)c1ccccc1` [Benzyl benzoate] showed a half-maximal cytotoxic concentration (CC50) at 24 h (AC50 (uM) modified / 1000) of more than 90 µM. In turn, `C=C(C)C(=O)OCCCCCCCCCCCCC` [Tridecyl methacrylate] had a CC50 at 24 h (AC50 (uM) modified / 1000) of more than 90 µM.

The molecule `SCc1ccccc1` [Benzenemethanethiol] returned a cytotoxic concentration (CC50) at 24 h (AC50 (uM) modified / 1000, Tox21_110001=Tox21_200129, viability, 1 nM T3 present, 24 h) of more than 90 µM. The molecule `CC(C)Oc1ccc2c(=O)c(-c3ccccc3)coc2c1` [Ipriflavone] yielded a CC50 at 24 h (AC50 (uM) modified / 1000) of more than 50 µM. Still for that read-out and setting: for `O=C(NC1CCN(CCc2c[nH]c3ccccc23)CC1)c1ccccc1` [Indoramin hydrochloride] the value was 22.2 µM; for `CO/N=C(\C(=O)N[C@@H]1C(=O)N2C(C(=O)[O-])=C(C[n+]3cccc4c3CCCC4)CS[C@H]12)c1csc(N)n1` [Cefquinome sulfate], more than 50 µM; for `CC(C)CCCO` [4-Methylpentan-1-ol], more than 90 µM. Still for that read-out and setting: as for `CN(C(=O)CCCOc1ccc2[nH]c(=O)ccc2c1)C1CCCCC1` [Cilostamide], the figure is more than 50 µM. The same measure, in the same setting: as for `OCCCc1ccccc1` [3-Phenyl-1-propanol], the figure is more than 50 µM; as for `COCCCN` [3-Methoxypropylamine], more than 90 µM; as for `CN(C)CCCO[C@@H]1[C@H]2OC(C)(C)O[C@H]2O[C@@H]1[C@H](O)CO` [Amiprilose hydrochloride], more than 50 µM. On to `CCCCCCCCCC[N+](C)(CCCCCCCCCC)CCC[Si](OC)(OC)OC` [Disiquonium chloride], for which, where the note is “AC50 (uM) modified / 1000”, half-maximal cytotoxicity (CC50 at 24 h) was put at 25.6 µM. As to `COc1ccc(C=O)cc1OC` [Veratraldehyde], under “AC50 (uM) modified / 1000, Tox21_110001=Tox21_201566, viability, 1 nM T3 present, 24 h”, the CC50 at 24 h is more than 90 µM. The molecule `CN(N=O)c1ccccc1` [Nitrosomethylaniline] came in with a CC50 at 24 h (AC50 (uM) modified / 1000) of more than 90 µM. `CC(C)(O)c1cnn2c(-c3ccc(F)c(-c4c(F)cccc4C#N)c3)cnc2n1` [PharmaGSID_47330] showed a CC50 at 24 h (AC50 (uM) modified / 1000) of more than 90 µM.

`COC1=CC(=O)O[C@@H](CCc2ccccc2)C1` [Dihydrokavain] showed a CC50 at 24 h (AC50 (uM) modified / 1000) of more than 100 µM. The same measure, in the same setting: as for `O=C1C(O)=C([C@H]2CC[C@H](c3ccc(Cl)cc3)CC2)C(=O)c2ccccc21` [Atovaquone], the figure is 8.49 µM. `Cc1ccc(OP(=O)(Oc2ccc(C)cc2)Oc2ccc(C)cc2)cc1` [Tricresyl phosphate]: the CC50 at 24 h (AC50 (uM) modified / 1000, Tox21_110001=Tox21_201546, viability, 1 nM T3 present, 24 h) was more than 90 µM.

Consider `Cc1cc(=O)nc(C(C)C)[nH]1` [2-Isopropyl-6-methyl-4-pyrimidone], for which the CC50 at 24 h (AC50 (uM) modified / 1000) was more than 90 µM. Take `COC(=O)C(C)=O` [Methylpyruvate]: the CC50 at 24 h (AC50 (uM) modified / 1000) is more than 90 µM. Take `Cc1ccc(C(C)(C)O)cc1` [p-Cymen-8-ol]: the cytotoxic concentration (CC50) at 24 h (AC50 (uM) modified / 1000) is more than 90 µM. Same read-out and setting: for `Cc1ncc(CSSCc2cnc(C)c(O)c2CO)c(CO)c1O` [Pyrithioxin dihydrochloride] the value was more than 50 µM; for `CCCC(=O)OC` [Methyl butyrate], more than 90 µM. The same measure, in the same setting: for `CCCOC(=O)c1ccccc1C(=O)OCCC` [Dipropyl phthalate] the value was more than 90 µM. Still for that read-out and setting: as for `Cc1nc(-c2ccccn2)ncc1C(=O)Nn1cc(C)c2cc(F)ccc21` [SAR102608], the figure is more than 90 µM. Consider `C/C=C/C=N/NC(=O)c1ccncc1` [Crotoniazide], for which, where the note is “AC50 (uM) modified / 1000”, the CC50 at 24 h is more than 50 µM. `N#C/C=C/C#N` [Fumaronitrile]: the midpoint of cytotoxicity (AC50 (uM) modified / 1000, Tox21_110001=Tox21_201151, viability, 1 nM T3 present, 24 h), the CC50 at 24 h, lay at 49.9 µM. As for `CC(C)c1ccc2cc(C(C)C)ccc2c1` [2,6-Diisopropylnaphthalene], for the setting “AC50 (uM) modified / 1000”, the CC50 at 24 h is more than 90 µM. The same measure, in the same setting: as for `COc1ccc(N)c(C)c1` [4-Methoxy-2-methylaniline], the figure is more than 90 µM; as for `COc1ccccc1N1CCN(CCCC(=O)c2ccc(F)cc2)CC1` [Fluanisone], more than 50 µM; as for `O=C(O)Cc1ccc(-c2ccccc2)cc1` [Felbinac], more than 20 µM. Regarding `CCCCNS(=O)(=O)c1ccccc1` [N-Butylbenzenesulfonamide], where the note is “AC50 (uM) modified / 1000”, the CC50 at 24 h is more than 90 µM.

For the molecule `Nc1ccc(S(=O)(=O)O)c(N)c1` [2,4-Diaminobenzenesulfonic acid], under “AC50 (uM) modified / 1000”, the CC50 at 24 h was more than 90 µM. The same measure, in the same setting: as for `Oc1ccc([C@@H]2CNCc3c2ccc(O)c3O)cc1O` [Zelandopam], the figure is 39.3 µM; as for `CN1C(=O)CC(C)(c2ccccc2)C1=O` (centres unmarked) [Methsuximide], more than 50 µM.

Under “AC50 (uM) modified / 1000”, `CCCCC/C=C\C/C=C\CCCCCCCC(=O)NC(C)c1ccccc1` (centres unmarked) [Melinamide] displayed a 50% cytotoxic concentration (CC50) at 24 h of more than 50 µM. Take `Nc1c(Cl)c(F)nc(OCC(=O)O)c1Cl` [Fluroxypyr]: under “AC50 (uM) modified / 1000”, the CC50 at 24 h was more than 90 µM.

Where the note is “AC50 (uM) modified / 1000”, `O=C(O)CC(C(=O)O)C(CC(=O)O)C(=O)O` (centres unmarked) [1,2,3,4-Butanetetracarboxylic acid] displayed a half-maximal cytotoxic concentration (CC50) at 24 h of more than 90 µM. `COc1ccc(C(C)=O)cc1` [4'-Methoxyacetophenone]: the CC50 at 24 h (AC50 (uM) modified / 1000) is more than 90 µM. For the setting “AC50 (uM) modified / 1000”, `O=C(O)c1cc(-c2ccc(F)cc2F)ccc1O` [Diflunisal] came in with a CC50 at 24 h of more than 20 µM. Same read-out and setting: for `OP(O)c1ccccc1` [Phenylphosphinic acid] the value was more than 90 µM. Molecule `CNC(C)(C)Cc1ccccc1` [Mephentermine hemisulfate] showed a 50% cytotoxic concentration (CC50) at 24 h (AC50 (uM) modified / 1000, Tox21_110001=Tox21_110501, viability, 1 nM T3 present, 24 h) of more than 20 µM. `O=C(O)C(Br)CBr` (centres unmarked) [2,3-Dibromopropionic acid] had a CC50 at 24 h (AC50 (uM) modified / 1000, Tox21_110001=Tox21_200140, viability, 1 nM T3 present, 24 h) of more than 90 µM. The molecule `CCCCCCCCCCCCCCCCN` [Hexadecylamine] gave a 50% cytotoxic concentration (CC50) at 24 h (AC50 (uM) modified / 1000) of more than 50 µM.

Under “AC50 (uM) modified / 1000, Tox21_110001=Tox21_302242, viability, 1 nM T3 present, 24 h”, `CCCCCCCCP(=O)(O)O` [Octylphosphonic acid] showed a CC50 at 24 h of more than 90 µM. `O=P(O)(O)Oc1ccccc1` [Phenyl dihydrogen phosphate] yielded a CC50 at 24 h (AC50 (uM) modified / 1000) of more than 90 µM.

In the case of `O=P(Oc1ccccc1)(Oc1ccccc1)Oc1ccccc1` [Triphenyl phosphate], the CC50 at 24 h (AC50 (uM) modified / 1000, Tox21_110001=Tox21_201511, viability, 1 nM T3 present, 24 h) was more than 90 µM. `CCN(CC)C(=O)[C@]1(c2ccccc2)C[C@@H]1CN` (racemic) [Milnacipran hydrochloride]: the CC50 at 24 h (AC50 (uM) modified / 1000) was more than 50 µM. As for `O=C(O[C@@H](C(=O)O)[C@@H](OC(=O)c1ccccc1)C(=O)O)c1ccccc1` [Dibenzoyl-L-tartaric acid], the CC50 at 24 h (AC50 (uM) modified / 1000) was more than 90 µM. `ClCC(Cl)Cl` [1,1,2-Trichloroethane]: the CC50 at 24 h (AC50 (uM) modified / 1000, Tox21_110001=Tox21_202465, viability, 1 nM T3 present, 24 h) was more than 90 µM. Turning to `CC(C)(C)c1cc(/C=C2\SC(N)=NC2=O)cc(C(C)(C)C)c1O` [Darbufelone mesylate], the midpoint of cytotoxicity (AC50 (uM) modified / 1000), the CC50 at 24 h, lay at 23.6 µM. Regarding `Nc1ccc(N)c2ccccc12` [1,4-Naphthalenediamine], the CC50 at 24 h (AC50 (uM) modified / 1000) is more than 90 µM. On the same count and under the same terms, for `COc1ccc(COC=O)cc1` [4-Methoxybenzyl formate] the value was more than 90 µM; for `C#CC(C)N(C)C(=O)Nc1ccc(Cl)cc1` (centres unmarked) [Buturon], more than 90 µM.

In the case of `CC(=O)Nc1ccccc1C` [N-Acetyl-o-toluidine], the CC50 at 24 h (AC50 (uM) modified / 1000) was more than 100 µM. The same measure, in the same setting: as for `CCOc1ccc(NC(=O)CC(C)O)cc1` (centres unmarked) [3-Hydroxy-4-butyrophenetidide], the figure is more than 90 µM.
